The source of these data is patent US20260138961A1, “MODULATORS OF MITOCHONDRIAL DNA REPLICATION” (Pretzel Therapeutics, Inc., priority 2022, published 2026).

Usually AC50 stands for the midpoint of the concentration-response curve, whichever way the signal moves.

Each structure is given as a SMILES string.

The experiment has as its target T1, POLγA:G848S (Homo sapiens, UniProt P54098, G848S).
T1 sequence (P54098 1-1239 G848S): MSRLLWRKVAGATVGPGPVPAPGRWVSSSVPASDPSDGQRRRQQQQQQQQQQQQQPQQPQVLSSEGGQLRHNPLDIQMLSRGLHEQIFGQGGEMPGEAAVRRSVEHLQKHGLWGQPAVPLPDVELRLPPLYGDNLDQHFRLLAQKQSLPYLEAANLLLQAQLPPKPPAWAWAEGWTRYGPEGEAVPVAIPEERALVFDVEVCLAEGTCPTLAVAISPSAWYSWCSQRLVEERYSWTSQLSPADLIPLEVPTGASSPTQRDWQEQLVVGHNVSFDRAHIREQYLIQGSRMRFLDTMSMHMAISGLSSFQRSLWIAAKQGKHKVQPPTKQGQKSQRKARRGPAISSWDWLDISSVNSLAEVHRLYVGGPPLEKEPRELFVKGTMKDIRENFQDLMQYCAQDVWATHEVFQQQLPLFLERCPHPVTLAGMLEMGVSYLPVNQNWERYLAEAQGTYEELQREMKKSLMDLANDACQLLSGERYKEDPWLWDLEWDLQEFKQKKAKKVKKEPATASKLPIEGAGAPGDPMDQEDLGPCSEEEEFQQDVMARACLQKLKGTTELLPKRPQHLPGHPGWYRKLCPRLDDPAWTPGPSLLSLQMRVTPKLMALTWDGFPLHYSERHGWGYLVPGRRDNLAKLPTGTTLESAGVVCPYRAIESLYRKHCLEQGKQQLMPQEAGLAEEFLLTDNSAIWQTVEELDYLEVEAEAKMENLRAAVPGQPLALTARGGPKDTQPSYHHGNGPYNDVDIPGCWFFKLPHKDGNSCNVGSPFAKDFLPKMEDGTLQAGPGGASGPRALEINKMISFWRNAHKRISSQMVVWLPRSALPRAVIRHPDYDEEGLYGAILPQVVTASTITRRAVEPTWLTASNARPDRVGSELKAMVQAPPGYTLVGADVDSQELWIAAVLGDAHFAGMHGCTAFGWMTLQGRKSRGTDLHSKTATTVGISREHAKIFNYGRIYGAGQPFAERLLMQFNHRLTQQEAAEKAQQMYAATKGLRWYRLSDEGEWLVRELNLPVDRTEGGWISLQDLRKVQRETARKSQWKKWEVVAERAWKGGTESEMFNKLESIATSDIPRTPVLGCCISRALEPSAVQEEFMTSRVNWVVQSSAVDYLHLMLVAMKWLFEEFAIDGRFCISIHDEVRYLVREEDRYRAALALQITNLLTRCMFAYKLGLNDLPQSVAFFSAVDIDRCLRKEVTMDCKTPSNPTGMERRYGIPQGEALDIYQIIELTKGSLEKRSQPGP
T1 sequence (Q9UHN1 1-485 partner): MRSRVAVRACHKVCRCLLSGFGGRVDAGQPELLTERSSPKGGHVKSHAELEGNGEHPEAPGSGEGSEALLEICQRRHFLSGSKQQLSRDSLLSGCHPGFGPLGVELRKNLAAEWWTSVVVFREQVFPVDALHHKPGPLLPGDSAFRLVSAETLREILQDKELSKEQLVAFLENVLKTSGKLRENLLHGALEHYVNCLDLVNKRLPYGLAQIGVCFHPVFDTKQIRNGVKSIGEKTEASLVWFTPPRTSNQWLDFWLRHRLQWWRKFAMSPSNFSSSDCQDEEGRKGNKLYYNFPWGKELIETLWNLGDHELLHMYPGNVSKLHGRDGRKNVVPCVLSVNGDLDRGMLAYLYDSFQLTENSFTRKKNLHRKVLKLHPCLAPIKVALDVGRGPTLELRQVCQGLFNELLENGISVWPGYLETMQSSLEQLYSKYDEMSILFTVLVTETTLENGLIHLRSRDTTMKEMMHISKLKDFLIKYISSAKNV
The experiment is described as follows: DNA polymerization assay, POLγA:G848S mutant. The class given is biochemical. The note with it: stimulation of polymerase activity, primed M13mp18 ssDNA, 37° C. 2 hours; read-out: G848S AC50.
For `Cc1ccc(C)c(S(=O)(=O)Nc2cccc(C(=O)N(C)C)c2)c1` [Example 25, 3-((2,5-dimethylphenyl)sulfonamido)-N,N-dimethylbenzamide], the AC50 is more than 100 µM. For `Cc1cc(S(=O)(=O)Nc2csc(-c3ccccn3)n2)c(C)cc1Cl` [Example 173, 4-chloro-2,5-dimethyl-N-(2-(pyridin-2-yl)thiazol-4-yl)benzenesulfonamide], the AC50 came to 2 µM. For `Cc1cc(S(=O)(=O)Nc2nc(-c3ccccc3)co2)c(C)cc1Cl` [Example 157, 4-chloro-2,5-dimethyl-N-(4-phenyloxazol-2-yl)benzenesulfonamide], the half-maximal activity concentration (AC50) was more than 100 µM. As to `Cc1cc(S(=O)(=O)Nc2cccc(C(=O)NCCO)c2)c(C)cc1Cl` [Example 53, 3-((4-chloro-2,5-dimethylphenyl)sulfonamido)-N-(2-hydroxyethyl)benzamide], the AC50 is 63 µM. As to `Cc1ccc(C)c(S(=O)(=O)Nc2cccc(C(=O)N3CCCCCC3)c2)c1` [Example 32, N-(3-(azepane-1-carbonyl)phenyl)-2,5-dimethylbenzenesulfonamide], the AC50 stood at 35 µM. Under `Cc1csc(-c2cccc(NS(=O)(=O)c3cc(C)c(Cl)cc3C)c2)n1` [Example 20, 4-chloro-2,5-dimethyl-N-(3-(4-methylthiazol-2-yl)phenyl)benzenesulfonamide] stands 2 µM.

For the molecule `Cc1ccc(C)c(S(=O)(=O)Nc2cncc(C(=O)N3CCOCC3)c2)c1` [Example 38, 2,5-dimethyl-N-(5-(morpholine-4-carbonyl)pyridin-3-yl)benzenesulfonamide], the AC50 is more than 100 µM. `Cc1cc(S(=O)(=O)Nc2csc(C(=O)N3CCCC3)n2)c(C)cc1Cl` [Example 166, 4-chloro-2,5-dimethyl-N-(2-(pyrrolidine-1-carbonyl)thiazol-4-yl)benzenesulfonamide]: the AC50 was determined as 0.6 µM.

Take `Cc1cc2cc(NS(=O)(=O)c3cc(C)c(Cl)cc3C)ccc2[nH]1` [Example 184, 4-chloro-2,5-dimethyl-N-(2-methyl-1H-indol-5-yl)benzenesulfonamide]: the half-maximal activity concentration (AC50) is 24 µM. In the case of `COCCN(C)C(=O)c1cccc(NS(=O)(=O)c2cc(C)c(Cl)cc2C)c1` [Example 58, 3-((4-chloro-2,5-dimethylphenyl)sulfonamido)-N-(2-methoxyethyl)-N-methylbenzamide], the AC50 came out at 46 µM. `Cc1cc(S(=O)(=O)Nc2cccc(C(=O)N[C@H](C)CO)c2)c(C)cc1Cl` [Example 51, (R)-3-((4-chloro-2,5-dimethylphenyl)sulfonamido)-N-(1-hydroxypropan-2-yl)benzamide]: the AC50 was 44 µM. As for `Cc1cc(S(=O)(=O)Nc2nc(-c3ccccc3)n(C)n2)c(C)cc1Cl` [Example 180, 4-chloro-2,5-dimethyl-N-(1-methyl-5-phenyl-1H-1,2,4-triazol-3-yl)benzenesulfonamide], the half-maximal activity concentration (AC50) was more than 10 µM. Regarding `Cc1ccc(C)c(S(=O)(=O)Nc2ccc(C(=O)NCC3CC3)cc2)c1` [Example 40, N-(cyclopropylmethyl)-4-((2,5-dimethylphenyl)sulfonamido)benzamide], the AC50 is more than 100 µM. For `N#CC1CSCCN1C(=O)c1cccc(NS(=O)(=O)c2cccc(C(F)(F)F)c2)c1` (stereo not shown) [Example 35, N-(3-(3-cyanothiomorpholine-4-carbonyl)phenyl)-3-(trifluoromethyl)benzenesulfonamide], the AC50 is more than 100 µM. Take `Cc1cc(S(=O)(=O)Nc2cn(-c3ccccc3)cn2)c(C)cc1Cl` [Example 169, 4-chloro-2,5-dimethyl-N-(1-phenyl-1H-imidazol-4-yl)benzenesulfonamide]: the AC50 is more than 100 µM. To `Cc1cc(S(=O)(=O)Nc2ccc3ccn(C(C)C)c3c2)c(C)cc1Cl` [Example 69, 4-chloro-N-(1-isopropyl-1H-indol-6-yl)-2,5-dimethylbenzenesulfonamide] belongs 14 µM; to `Cc1cc(S(=O)(=O)Nc2cccc(C(=O)N3CCNCC3)c2)c(C)cc1Cl` [Example 46, 4-chloro-2,5-dimethyl-N-(3-(piperazine-1-carbonyl)phenyl)benzenesulfonamide], 91 µM.

For the molecule `Cc1ccc(C)c(S(=O)(=O)Nc2cccc(C(=O)NCc3ccccc3)c2)c1` [Example 28, N-benzyl-3-((2,5-dimethylphenyl)sulfonamido)benzamide], the AC50 was more than 100 µM.

On to `O=S(=O)(Nc1cccc(-c2nccs2)c1)c1ccc(Cl)cc1` [Example 59, 4-chloro-N-(3-(thiazol-2-yl)phenyl)benzenesulfonamide], for which the AC50 was more than 100 µM.

As for `Cc1cc(S(=O)(=O)Nc2csc(-c3ccncc3)n2)c(C)cc1Cl` [Example 176, 4-chloro-2,5-dimethyl-N-(2-(pyridin-4-yl)thiazol-4-yl)benzenesulfonamide], the AC50 came out at 0.4 µM.

For the molecule `Cc1cc(S(=O)(=O)Nc2cccc3c2CC(=O)N3)c(C)cc1Cl` [Example 36, 4-chloro-2,5-dimethyl-N-(2-oxoindolin-4-yl)benzenesulfonamide], the AC50 was more than 100 µM.

Consider `Cc1cc(S(=O)(=O)Nc2cccc(C(=O)N(C)CCO)c2)c(C)cc1Cl` [Example 56, 3-((4-chloro-2,5-dimethylphenyl)sulfonamido)-N-(2-hydoxyethyl)-N-methylbenzamide], for which the AC50 stood at 56 µM. `Cc1cc(S(=O)(=O)Nc2csc(C(=O)N3CCC[C@@H]3C)n2)c(C)cc1Cl` [Example 175, (S)-4-chloro-2,5-dimethyl-N-(2-(2-methylpyrrolidine-1-carbonyl)thiazol-4-yl)benzenesulfonamide]: the AC50 came out at 1 µM. `Cc1cc(S(=O)(=O)Nc2csc(C3CCOCC3)n2)c(C)cc1Cl` [Example 167, 4-chloro-2,5-dimethyl-N-(2-(tetrahydro-2H-pyran-4-yl)thiazol-4-yl)benzenesulfonamide]: the AC50 was 2 µM. For `CC(=O)N1CCC(c2nc(NS(=O)(=O)c3cc(C)c(Cl)cc3C)cs2)CC1` [Example 163, N-(2-(1-acetylpiperidin-4-yl)thiazol-4-yl)-4-chloro-2,5-dimethylbenzenesulfonamide], the half-maximal activity concentration (AC50) was 37 µM. Consider `Cc1cc(S(=O)(=O)Nc2cnn(-c3ccccc3)n2)c(C)cc1Cl` [Example 171, 4-chloro-2,5-dimethyl-N-(2-phenyl-2H-1,2,3-triazol-4-yl)benzenesulfonamide], for which the AC50 is more than 10 µM. `Cc1cc(S(=O)(=O)Nc2csc(C(=O)N3CCC[C@H]3C)n2)c(C)cc1Cl` [Example 174, (R)-4-chloro-2,5-dimethyl-N-(2-(2-methylpyrrolidine-1-carbonyl)thiazol-4-yl)benzenesulfonamide]: the AC50 came out at 0.4 µM. Under `Cc1cc(S(=O)(=O)Nc2cccc(C(=O)N3CCC(F)(F)C3)c2)c(C)cc1Cl` [Example 160, 4-chloro-N-(3-(3,3-difluoropyrrolidine-1-carbonyl)phenyl)-2,5-dimethylbenzenesulfonamide] stands 14 µM. Turning to `Cc1cc(S(=O)(=O)Nc2nc(-c3ccccc3)cn2C)c(C)cc1Cl` [Example 159, 4-chloro-2,5-dimethyl-N-(1-methyl-4-phenyl-1H-imidazol-2-yl)benzenesulfonamide], the AC50 was more than 100 µM. With `Cc1cc(S(=O)(=O)Nc2csc(C(=O)N(CC(N)=O)C3CCCCC3)n2)c(C)cc1Cl` [Example 179, N-(2-amino-2-oxoethyl)-4-((4-chloro-2,5-dimethylphenyl)sulfonamido)-N-cyclohexylthiazole-2-carboxamide], the concentration at half-maximal activity (AC50) was more than 10 µM. With `Cc1cc(S(=O)(=O)Nc2csc(-c3ccn(C)n3)n2)c(C)cc1Cl` [Example 181, 4-chloro-2,5-dimethyl-N-(2-(1-methyl-1H-pyrazol-3-yl)thiazol-4-yl)benzenesulfonamide], the AC50 came out at 0.7 µM.
